According to patent publication US4622317A, “Treatment of skin over androgenicity using compositions containing pregnenolone” (priority 1985, dated 1986):

What was measured:
[1] = system: flank organ of female hamsters; conditions: topical, 5 days/week for 2 weeks; cited from earlier work
[2] = system: skin / body of acne patients; conditions: cited from earlier work; for skin irritation and peeling: topical application
[3] = system: 3β-hydroxysteroid dehydrogenase Δ^4-5 -isomerase (3βHSD); assay: in vitro inhibition of 3βHSD conversion of DHA in rat preputial gland homogenate; format: biochemical, rat (female Sprague-Dawley); conditions: rat preputial gland homogenate (2 mg protein), 1,2-^3 H-DHA + 100 nmoles DHA, 37° C.; four separate incubations; inhibitor concentration not given
Procedure: To assess the androgen inhibiting activity of pregnenolone, rat preputial gland was employed to investigate the in vitro androgenic action of DHA. […] A pair of the glands are situated in the prepuce of the rat of either sex weighing between 125-200 mg in an average 200 g rat, being slightly larger in the male animal. The animals employed were female Sprague-Dawley rats, 10-12 weeks old and weighing 225-300 g.
The experimental format, stated broadly, was to excise preputial glands from rats and prepare a homogenate therefrom. […] The metabolites were quantitated by removal from the thin layer plate and counting in a scintillation counter. By determining the extent of metabolite formation, the extent of inhibition of 3βHSD could be correspondingly determined. […]
Experiments were initially conducted to ensure that DHA and its metabolites could be separated chromatographically. […] The position of the steroid can be readily traced with this method. […] Elution and quantitative evaluation of steroids can be effected after removal of the iodine. […] For quantitation the plates were then scraped in 1 cm sections for radioassay of ^3 H in a Packard Tri-Carb liquid scintillation counter. Silica gel H blanks and ^3 H-standards (Packard Instrument Co.) were also counted. […]

[4] = system: 3βHSD (female hamster flank organs); assay: in vivo inhibition of conversion of 1,2-^3 H-DHA to metabolites in flank organs of female hamsters; design: species or system female Syrian Golden Hamster; conditions: topical 1200 μg/0.1 ml acetone to each flank organ for 3 days
Excerpt: (§1) The effects of hormones and hormonally active substances on sebaceous glands can also be evaluated using the Syrian hamster flank organs as an animal model. The results of experiments using hamsters are valuable inasmuch as they can provide in vivo confirmation of the in vitro experiments like those described above using rat preputial gland. The flank organs, also called the costovertebral spot or the costovertebral organ, are sebaceous structures located on each flank of the animal. Like the sebaceous glands of the human and the preputial gland of the rat they are androgen dependent (Voigt and Hsia, 1973; Gomez and Frost, 1969; Frost and Gomez, 1973).
Hamster flank organs were accordingly used to test in vivo the androgenic inhibitory properties of pregnenolone.
Female Syrian Golden Hamsters were used in this experiment. […]
On the afternoon of day 3, an intracardial injection of 1,2-^3 H-DHA (5μCi/0.1 ml saline buffer solution) was given to both experimental groups anesthetized with ether. […] Each organ was then placed in a 16 mm×150 mm test tube containing methanol and was homogenized, extracted and analyzed for steroid metabolites by separating the metabolites using thin layer chromatography as described above, scraping the thus separated metabolites from the thin layer plates, and quantitating using a scintillation counter. […]
Results are shown in FIG. 2 expressed as DPM/mg tissue.

acne vulgaris = format: in vivo, human
Procedure: The following experiment was conducted and is a typical trial. In a double-blind clinical trial 23 patients with acne vulgaris volunteered to participate. Fifteen patients (11 females and 4 males) were given a 1% solution of pregnenolone dissolved in isopropanol containing 1% glycerol, and 8 patients (5 females and 3 males) were given a 1% solution of glycerol in isopropanol. Neither the patients nor the attending dermatologist knew whether or not the dispensed solution contained pregnenolone. The patients were instructed to stop using their previous medications for two weeks and then to apply the given solution to their faces twice daily. They were reexamined biweekly.

[5] = solubility of pregnenolone; format: physicochemical
[6] = background statement; cited from earlier work
[7] = system: female hamster flank organs; assay: stimulation of female hamster flank organs by topical DHA; format: in vivo; conditions: 12 μg, 60 μg, 120 μg to right side, 7 days/week for 6 weeks, female hamsters
Excerpt: as §1
The organ in the mature male hamster measures approximately 8 mm in diameter, is heavily pigmented and is covered with coarse dark hairs (Voigt and Hsia, 1973). The organ of the female animal is undeveloped, measuring about 2 mm in diameter, lightly pigmented, without dark hairs, and is at times difficult to see. The anatomical and histological changes in this organ in response to androgens have been described by Hamilton and Montagna (1950).
Before testing the anti-androgenic properties of pregnenolone on hamster flank organs and relying on the results, a centrally important question therefore needed to be answered--Could DHA be shown to stimulate growth in the flank organs? […]

skin = conditions: studies by the inventor and other laboratories; cited from earlier work
[8] = 1% pregnenolone in isopropanol containing 1% glycerol, twice daily, twelve weeks, 4 of 15 patients

## C[C@]12CCC(=O)C=C1CC[C@@H]1[C@@H]2CC[C@@]2(C)[C@H]1CC[C@]2(C)O [methyltestosterone]
[1]
  sebaceous gland growth and pigmentation of flank organ: unilateral stimulation of sebaceous gland growth and pigmentation

## C[C@]12CC[C@H]3[C@@H](CCC4=CC(=O)CC[C@@]43C)[C@@H]1CC[C@@H]2O [testosterone]
[1]
  sebaceous gland growth and pigmentation of flank organ: unilateral stimulation of sebaceous gland growth and pigmentation

## CC1=C(/C=C/C(C)=C/C=C/C(C)=C\C(=O)O)C(C)(C)CCC1 [Accutane, 13-Cis retinoic acid]
[2]; internal use
  blood lipids and liver toxicity: alters blood lipids and causes liver toxicity

## CC1=C(/C=C/C(C)=C/C=C/C(C)=C/C(=O)O)C(C)(C)CCC1 [retinoic acid]
[2]
  skin irritation and peeling: irritates the skin and causes the skin to peel

## CC(=O)[C@H]1CC[C@H]2[C@@H]3CC=C4C[C@@H](O)CC[C@]4(C)[C@H]3CC[C@]12C [pregnenolone, Δ^5-pregnene-3β-ol-20-one]
[3]
  inhibition of 3βHSD for DHA (percentage of total Δ^4 -3-keto product formed in absence of inhibitor): 91-92%
[4]; DHA-stimulated, 1 hour after intracardial ^3 H-DHA (5 μCi)
  total metabolites converted from 1,2-^3 H-DHA, treated versus control: Significant differences (P<0.01)
[4]; DPM/mg tissue in FIG. 2
  formation of testosterone, DHT and androstanediol, control versus treated: Control hamsters, not treated with inhibitor, show greater formation of testosterone, DHT and androstanediol
Acne vulgaris; 1% pregnenolone in isopropanol containing 1% glycerol, twice daily, twelve weeks, 2 of 15 patients
  patients with reduction of oiliness: 13%
Acne vulgaris; [8]
  patients with no change in lesions or oiliness: 26%
  patients with slight reduction of the number of lesions and a reduction in the oiliness of the skin: 26%
Acne vulgaris; 1% pregnenolone in isopropanol containing 1% glycerol, twice daily, twelve weeks, 5 of 15 patients
  patients with definite improvement, with reduction in the size and number of lesions: 33%
Acne vulgaris; conclusion of the trial, continued use
  beneficial effect in acne; prevention of new lesions: beneficial effect in the treatment of acne, and that continued use of pregnenolone prevents the development of new lesions
Acne vulgaris; human, in vivo
  irritation or discomfort caused by topical application: no complaint of irritation or discomfort
Acne vulgaris; patients who had used other medications previously
  efficacy and acceptability compared with previous medications (patients' claims): more effective and more acceptable
[5]; alcohols, such as isopropanol or mixtures with longer (C4 -C10) alkane or alkene chains
  solubility in alcohols: soluble
[5]; water
  solubility in water: insoluble in water
[6]
  androgenic / hormonal activity: no known hormonal activity of its own

## C[C@]12CCC(=O)C[C@@H]1CC[C@@H]1[C@@H]2CC[C@]2(C)[C@@H](O)CC[C@@H]12 [DHT, dihydrotestosterone]
[1]
  sebaceous gland growth and pigmentation of flank organ: unilateral stimulation of sebaceous gland growth and pigmentation

## C[C@]12CC[C@@H](O)C[C@@H]1CC[C@@H]1[C@@H]2CC[C@]2(C)C(=O)CC[C@@H]12 [androsterone]
[1]
  sebaceous gland growth and pigmentation of flank organ: did not cause flank organ growth or increased pigmentation

## C[C@]12CC[C@H](O)CC1=CC[C@@H]1[C@@H]2CC[C@]2(C)C(=O)CC[C@@H]12 [DHA, dehydroepiandrosterone]
[7]
  stimulation of flank organs: not only a local stimulation, but stimulation of both flank organs, hence systemic stimulation
[6]
  androgenic / hormonal activity: only weak androgenic activity
skin
  metabolism in the skin: readily metabolized in the skin to form potent androgenic steroids

## O=C(OOC(=O)c1ccccc1)c1ccccc1 [benzoyl peroxide]
[2]
  skin irritation and peeling: irritates the skin and causes the skin to peel

## C[C@]12CC[C@H](O)C[C@@H]1CC[C@@H]1[C@@H]2CC[C@]2(C)C(=O)CC[C@@H]12 [epiandrosterone]
[1]
  sebaceous gland growth and pigmentation of flank organ: did not cause flank organ growth or increased pigmentation

## C[C@]12CCC(=O)C=C1CC[C@@H]1[C@@H]2CC[C@]2(C)C(=O)CC[C@@H]12 [androstenedione, Δ^4 -androstenedione]
[1]
  sebaceous gland growth and pigmentation of flank organ: unilateral stimulation of sebaceous gland growth and pigmentation

## CC(=O)[C@H]1CC[C@H]2[C@@H]3CCC4=CC(=O)CC[C@]4(C)[C@H]3CC[C@]12C [progesterone]
[1]
  sebaceous gland growth and pigmentation of flank organ: did not cause flank organ growth or increased pigmentation
